The record followed here is DBAASP.

Structures are written as SMILES. In brackets after ≈: the same amount, converted by molar mass.

What all share (test): ≥ marks a high value that may be exact or a test limit, other limits are often not marked, values filed in µg/mL are converted to µM
The test system of experiment [1] is Acinetobacter baumannii NM8.
In experiment [2] the test system is Candida albicans ATCC 90028.
Experiment [3] deals with Escherichia coli ATCC 25726.
In experiment [4] the test system is Klebsiella pneumoniae ATCC 700603.
The subject of experiment [5] is Pseudomonas aeruginosa ATCC 27853.
Experiment [6] relates to Staphylococcus aureus ATCC 25923.
In experiment [7] the test system is Staphylococcus epidermidis RP62A/1.
Experiment [8] relates to Staphylococcus epidermidis RP62A.
Experiment [9] concerns Stenotrophomonas maltophilia B32/4.
Experiment [10] has as its system Acetobacterium wieringae CGMCC 1.2033.
Experiment [11] deals with Alcaligenes faecalis CGMCC 1.924.
In experiment [12] the test system is Aspergillus flavus CGMCC 3.6433.
Experiment [13] concerns Bacillus cereus CMCC 1.126.
Experiment [14] concerns Bacillus subtilis CGMCC 1.88.
The test system of experiment [15] is Bacillus thuringiensis serovar israelensis H14.
In experiment [16] the test system is Beauveria bassiana CGMCC 3.3576.
Experiment [17] relates to Candida albicans CMCC 98001.
Experiment [18] deals with Corynebacterium glutamicum CGMCC 1.818.
Experiment [19] deals with Enterobacter cloacae CGMCC 1.58.
For experiment [20], the system named is Enterococcus faecalis CGMCC 1.100.
Experiment [21] deals with Escherichia coli CGMCC 1.1369.
Experiment [22] has as its system Klebsiella aerogenes CGMCC 1.2021.
Experiment [23] deals with Micrococcus luteus AB206228.
The subject of experiment [24] is Penicillium sp. ATCC 30106.
Experiment [25] relates to Proteus vulgaris CGMCC 1.1651.
Experiment [26] concerns Providencia rettgeri CMCC 49256.
The test system of experiment [27] is Pseudomonas aeruginosa CMCC 10104.
The test system of experiment [28] is Saccharomyces cerevisiae CGMCC 2.1619.
For experiment [29], the system named is Salmonella typhimurium CGMCC 1.1174.
For experiment [30], the system named is Tetragenococcus halophilus CGMCC 1.2492.
In experiment [31] the test system is Bacillus subtilis KCTC 1918.
Experiment [32] has as its system Candida albicans CCARM 14001.
Experiment [33] deals with Candida albicans CCARM 14007.
Experiment [34] deals with Candida albicans KCTC 7270.
Experiment [35] concerns Escherichia coli CCARM 1229.
Experiment [36] concerns Escherichia coli CCARM 1238.
Experiment [37] concerns Escherichia coli KCTC 1682.
Experiment [38] relates to Listeria monocytogenes KCTC 3710.
In experiment [39] the test system is Pseudomonas aeruginosa KCTC 1637.
In experiment [40] the test system is Salmonella typhimurium CCARM 8007.
Experiment [41] concerns Salmonella typhimurium CCARM 8009.
The subject of experiment [42] is Salmonella typhimurium CCARM 8013.
In experiment [43] the test system is Salmonella typhimurium KCTC 1926.
The test system of experiment [44] is Staphylococcus aureus CCARM 3089.
Experiment [45] has as its system Staphylococcus aureus CCARM 3090.
Experiment [46] has as its system Staphylococcus aureus CCARM 3108.
For experiment [47], the system named is Staphylococcus aureus CCARM 3114.
Experiment [48] relates to Staphylococcus aureus CCARM 3126.
Experiment [49] deals with Staphylococcus aureus KCTC 1621.

`CC[C@H](C)[C@H](N)C(=O)N[C@@H](CC(C)C)C(=O)N[C@@H](CCCCN)C(=O)N[C@@H](CCCCN)C(=O)N[C@@H](CC(C)C)C(=O)N[C@@H](CC(C)C)C(=O)N[C@@H](CO)C(=O)N[C@H](C(=O)N[C@@H](C)C(=O)N[C@@H](C)C(=O)NCC(=O)N[C@@H](CC(C)C)C(=O)N[C@@H](CC(C)C)C(=O)N[C@@H](CO)C(=O)N[C@@H](CC(N)=O)C(=O)N[C@@H](CC(C)C)C(N)=O)[C@@H](C)O` [ILKKLLSTAAGLLSNL]: the MIC is 16 µM (≈ 26.5 µg/mL) in experiment [1]; at least 32 µM in experiment [2]; at least 32 µM in experiment [3]; 128 µM (≈ 212 µg/mL) in [4]; 128 µM (≈ 212 µg/mL) in experiment [5]; 64 µM (≈ 106 µg/mL) in experiment [6]. For the same compound, the figures for the MIC in experiment [7], in [8] and in experiment [9] were 16 µM (≈ 26.5 µg/mL), at least 32 µM and at least 32 µM, respectively.

Take `CC[C@H](C)[C@H](NC(=O)[C@H](Cc1ccccc1)NC(=O)[C@H](CCCCN)NC(=O)[C@H](C)NC(=O)[C@@H](NC(=O)[C@H](CO)NC(=O)[C@H](CCCCN)NC(=O)[C@H](CCSC)NC(=O)[C@H](C)NC(=O)[C@H](CCCCN)NC(=O)[C@H](Cc1ccccc1)NC(=O)[C@H](Cc1c[nH]c2ccccc12)NC(=O)CNC(=O)[C@H](CCCCN)NC(=O)[C@@H](N)CCCN=C(N)N)[C@@H](C)CC)C(=O)N[C@@H](C)C(=O)N[C@@H](CCCCN)C(=O)N[C@@H](CCC(=O)O)C(=O)N[C@@H](CCCCN)C(=O)N[C@@H](CC(C)C)C(=O)N[C@@H](CCCCN)C(=O)N[C@@H](CCC(=O)O)C(=O)N[C@@H](Cc1cnc[nH]1)C(=O)N[C@@H](CC(C)C)C(=O)O` [RKGWFKAMKSIAKFIAKEKLKEHL]: the MIC in [10] was 3.1 µM (≈ 8.95 µg/mL); in experiment [11], 3.1 µM (≈ 8.95 µg/mL); in experiment [12] it was 3.1 µM (≈ 8.95 µg/mL); in experiment [13], 6.2 µM (≈ 17.9 µg/mL); in experiment [14] it was 12.5 µM (≈ 36.1 µg/mL); in experiment [15], 12.5 µM (≈ 36.1 µg/mL). Further, the MIC in [16] is 6.2 µM (≈ 17.9 µg/mL); in [17], at least 50 µM; in experiment [18] it was 3.1 µM (≈ 8.95 µg/mL); in [19], at least 50 µM; in [20] it was 25 µM (≈ 72.2 µg/mL); in experiment [21] it was 25 µM (≈ 72.2 µg/mL). Besides, the MIC came out at 12.5 µM (≈ 36.1 µg/mL) in [22]; 3.1 µM (≈ 8.95 µg/mL) in experiment [23]; 3.1 µM (≈ 8.95 µg/mL) in experiment [24]; 6.2 µM (≈ 17.9 µg/mL) in experiment [25]; 6.2 µM (≈ 17.9 µg/mL) in [26]; 6.2 µM (≈ 17.9 µg/mL) in [27]. For the same compound, the figures for the MIC in [28], in experiment [29] and in experiment [30] were at least 50 µM, 12.5 µM (≈ 36.1 µg/mL) and 3.1 µM (≈ 8.95 µg/mL), respectively.

In the case of `NCCCC[C@H](NC(=O)[C@H](Cc1c[nH]c2ccccc12)NC(=O)[C@@H](N)CCCCN)C(=O)N[C@@H](Cc1c[nH]c2ccccc12)C(N)=O` [KWKW], the MIC in experiment [31] is at least 200 µM; in [32], at least 128 µM; in [33] it was at least 128 µM; in experiment [34], at least 128 µM; in experiment [35], at least 200 µM; in experiment [36], at least 200 µM. Further, the MIC in [37] is at least 200 µM; in experiment [38] it was at least 200 µM; in [39], at least 200 µM; in experiment [40], at least 309 µM; in [41], at least 200 µM; in experiment [42] it was at least 200 µM. The MIC in experiment [43], in experiment [44], in experiment [45], in [46], in experiment [47] and in experiment [48] was at least 200 µM throughout. For the same compound, the MIC in experiment [49] was at least 200 µM.
